From patent US20250170266A1 (ZYMEWORKS BC INC., priority 2022, published 2025) come the findings set out here.

Like-named read-outs stand apart in the source and are kept apart here.

Assay type in all cases: cell-based
One experiment has as its target T1, mTLR7 (Mus musculus, UniProt P58681).
T1 construct: host or cells: HEK-Blue mTLR7 reporter cells (HEK293-derived, own knowledge)
T1 sequence (P58681 27-1050): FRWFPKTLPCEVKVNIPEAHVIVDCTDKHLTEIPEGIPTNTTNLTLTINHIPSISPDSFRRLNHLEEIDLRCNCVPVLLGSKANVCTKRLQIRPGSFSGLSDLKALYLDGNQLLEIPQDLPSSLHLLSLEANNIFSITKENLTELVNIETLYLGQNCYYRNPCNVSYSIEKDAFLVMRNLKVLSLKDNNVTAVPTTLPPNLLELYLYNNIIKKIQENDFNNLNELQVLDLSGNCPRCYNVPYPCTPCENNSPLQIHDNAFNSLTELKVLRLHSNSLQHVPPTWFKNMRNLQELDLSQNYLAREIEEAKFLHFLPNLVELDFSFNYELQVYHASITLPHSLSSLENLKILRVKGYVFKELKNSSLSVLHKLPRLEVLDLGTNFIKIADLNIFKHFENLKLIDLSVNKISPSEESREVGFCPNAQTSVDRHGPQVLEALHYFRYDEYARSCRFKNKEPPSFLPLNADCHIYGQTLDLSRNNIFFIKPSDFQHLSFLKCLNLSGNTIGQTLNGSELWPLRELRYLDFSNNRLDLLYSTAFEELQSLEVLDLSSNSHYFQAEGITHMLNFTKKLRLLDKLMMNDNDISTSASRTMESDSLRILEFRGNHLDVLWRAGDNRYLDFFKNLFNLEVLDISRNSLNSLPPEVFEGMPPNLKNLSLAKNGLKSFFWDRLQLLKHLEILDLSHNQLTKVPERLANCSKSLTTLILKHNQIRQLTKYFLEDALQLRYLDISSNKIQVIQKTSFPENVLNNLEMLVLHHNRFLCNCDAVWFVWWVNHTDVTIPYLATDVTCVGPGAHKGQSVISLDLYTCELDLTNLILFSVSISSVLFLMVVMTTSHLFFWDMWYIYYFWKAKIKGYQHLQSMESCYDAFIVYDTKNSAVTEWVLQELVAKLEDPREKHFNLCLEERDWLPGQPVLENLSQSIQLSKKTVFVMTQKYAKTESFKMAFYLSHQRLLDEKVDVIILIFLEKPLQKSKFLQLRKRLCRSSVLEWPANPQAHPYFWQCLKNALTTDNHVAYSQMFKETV
In words: Reporter Gene Assay (RGA), HEK-Blue mTLR7 reporter cells, SEAP readout. As to conditions: overnight incubation, SEAP absorbance 620 nm. In outline: (§1)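 HEK-Blue reporter cells expressing human or mouse TLR7 (1.5×10^4 cells) were treated with an 11-point, 4-fold compound titration from 15 pM in HEK-Blue Detection medium. Incubation was overnight at 37° C with 5% CO2. Secreted embryonic alkaline phosphatase was read as absorbance at 620 nm.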

The target in another experiment is T2, hTLR7 (Homo sapiens, UniProt Q9NYK1).
T2 construct: host or cells: HEK-Blue hTLR7 reporter cells (HEK293-derived, own knowledge)
T2 sequence (Q9NYK1 27-1049): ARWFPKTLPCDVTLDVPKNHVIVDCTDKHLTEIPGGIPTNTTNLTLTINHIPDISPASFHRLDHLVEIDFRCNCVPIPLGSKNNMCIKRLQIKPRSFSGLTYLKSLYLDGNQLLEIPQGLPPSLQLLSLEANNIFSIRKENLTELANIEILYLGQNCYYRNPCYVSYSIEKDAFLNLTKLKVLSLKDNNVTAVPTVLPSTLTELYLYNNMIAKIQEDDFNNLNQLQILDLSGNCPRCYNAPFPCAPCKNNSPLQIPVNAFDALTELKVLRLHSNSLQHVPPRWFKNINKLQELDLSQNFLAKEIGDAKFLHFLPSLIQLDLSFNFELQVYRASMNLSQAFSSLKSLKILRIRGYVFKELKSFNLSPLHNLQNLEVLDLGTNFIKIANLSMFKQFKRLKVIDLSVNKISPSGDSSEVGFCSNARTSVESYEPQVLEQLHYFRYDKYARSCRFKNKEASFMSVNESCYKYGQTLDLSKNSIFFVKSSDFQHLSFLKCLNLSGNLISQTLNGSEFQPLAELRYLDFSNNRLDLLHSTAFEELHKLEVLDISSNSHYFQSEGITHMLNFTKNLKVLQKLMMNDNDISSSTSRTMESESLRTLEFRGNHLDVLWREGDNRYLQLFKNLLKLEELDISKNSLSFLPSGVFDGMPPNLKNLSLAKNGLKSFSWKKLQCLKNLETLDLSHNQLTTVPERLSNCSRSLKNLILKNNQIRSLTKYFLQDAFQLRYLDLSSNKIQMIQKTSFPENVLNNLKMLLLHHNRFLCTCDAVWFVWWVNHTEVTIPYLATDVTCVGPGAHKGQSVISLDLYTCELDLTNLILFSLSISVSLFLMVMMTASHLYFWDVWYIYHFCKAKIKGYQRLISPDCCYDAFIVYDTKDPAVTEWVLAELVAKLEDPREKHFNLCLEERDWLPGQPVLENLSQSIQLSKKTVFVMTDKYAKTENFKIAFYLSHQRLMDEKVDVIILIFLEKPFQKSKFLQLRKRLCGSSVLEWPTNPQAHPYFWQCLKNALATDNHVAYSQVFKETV
The experiment can be described thus: Reporter Gene Assay (RGA), HEK-Blue hTLR7 reporter cells, SEAP readout. The following applies: overnight incubation, SEAP absorbance 620 nm. The procedure, abridged: as §1

Experiment [1] concerns Human peripheral blood mononuclear cells (PBMCs). The experiment can be described thus: Human PBMC Assay, cytokine release (HTRF). The following applies: 24 hours; for EC50: PBMC. The procedure, abridged: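 Cryopreserved human PBMCs, rested overnight with 10 ng/ml hIL3, then 300,000 cells/well treated 24 h at 37° C with compound (4-fold, 11-point titration from 15 μM) in RPMI+10% FBS. Supernatant hIL6, hTNFα and hIFNα measured by HTRF; growth medium as negative control.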

In the next experiment the test system is Mouse splenocytes. The experiment can be described thus: Mouse Splenocyte Assay, cytokine release (HTRF). As to conditions: Splenocyte, 24 hours, mIL6 in supernatant, read-out: Splenocyte IL6 EC50. In outline:
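Splenocytes from female balb/c nude mice, thawed, 100,000 per well in RPMI + 10% FBS. Exposed for 24 h at 37 °C to a 4-fold 11-point compound titration from 15 μM; supernatant mIL6 and mTNFα measured by HTRF.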

The mark [2] stands for this setting: hIFNα in supernatant, EC50 values approximated and divided into groups, read-out: PBMC IFNa EC50.
Where [3] appears, read: hIL6 in supernatant, read-out: PBMC IL6 EC50.

Regarding `CCCCOc1nc(N)c2nc(O)n(Cc3ccc(N4CCNCC4)nc3)c2n1` [Compound 167, 6-amino-2-butoxy-9-((6-(piperazin-1-yl)pyridin-3-yl)methyl)-9H-purin-8-ol], the EC50 was 0.0053 µM on mTLR7; 0.0005 µM at hTLR7; over 0.01 µM in experiment [1] (setting [2]); 2.03 µM in experiment [1] (setting [3]); 0.018 µM with Mouse splenocytes.
As for `CCCCOc1nc(N)c2nc(O)n(Cc3ccc(N4CCC5(CCNCC5)CC4)nc3)c2n1` [Compound 168, 9-((6-(3,9-diazaspiro[5.5]undecan-3-yl)pyridin-3-yl)methyl)-6-amino-2-butoxy-9H-purin-8-ol], the concentration for a half-maximal effect (EC50) is 0.0057 µM at mTLR7, 0.0001 µM at hTLR7, over 0.01 µM in experiment [1] (setting [2]) and 0.0357 µM in the experiment with Mouse splenocytes. Besides, the “PBMC IL6 EC50 (nM)” value in experiment [1] (hIL6 in supernatant) was “inactive”.
Consider `CCCCOc1nc(N)c2nc(O)n(Cc3ccc(N4CCNCC4)cc3OC)c2n1` [Compound 169, 6-amino-2-butoxy-9-(2-methoxy-4-(piperazin-1-yl)benzyl)-9H-purin-8-ol], for which the EC50 on mTLR7 was 0.003 µM; at hTLR7 it was 0.0011 µM; in experiment [1] (setting [2]), 0.001 to 0.01 µM; in the experiment on Mouse splenocytes it was 0.0232 µM.
As to `CCCCOc1nc(N)c2nc(O)n(Cc3ccc(N4CCC(N)CC4)cc3OC)c2n1` [Compound 170, 6-amino-9-(4-(4-aminopiperidin-1-yl)-2-methoxybenzyl)-2-butoxy-9H-purin-8-ol], the EC50 at mTLR7 was 0.002 µM; at hTLR7, 0.001 µM; in experiment [1] (setting [2]), over 0.01 µM; in experiment [1] (setting [3]) it was 1.47 µM; in the experiment with Mouse splenocytes it was 0.0517 µM.
The like results for `CCCCOc1nc(N)c2nc(O)n(Cc3ccc(N4CCC5(CCNCC5)CC4)cc3OC)c2n1` [Compound 171, 6-amino-2-butoxy-9-(2-methoxy-4-(3,9-diazaspiro[5.5]undecan-3-yl)benzyl)-9H-purin-8-ol] were, in that order, 0.0011 µM, under 0.0001 µM, over 0.01 µM, 1.55 µM and 0.0089 µM.
Consider `CCCCOc1nc(N)c2nc(O)n(Cc3ccc(CCCN4CCC(N)CC4)cc3OC)c2n1` [Compound 172, 6-amino-9-(4-(3-(4-aminopiperidin-1-yl)propyl)-2-methoxybenzyl)-2-butoxy-9H-purin-8-ol], for which the EC50 was under 0.0001 µM at mTLR7, under 0.0001 µM at hTLR7, over 0.01 µM in experiment [1] (setting [2]) and 0.0021 µM in the experiment with Mouse splenocytes.
With `CCCCOc1nc(N)c2nc(O)n(Cc3ccc(CCCN4CCNCC4)cc3OC)c2n1` [Compound 173, 6-amino-2-butoxy-9-(2-methoxy-4-(3-(piperazin-1-yl)propyl)benzyl)-9H-purin-8-ol], the EC50 is 0.0006 µM at mTLR7; 0.0002 µM on hTLR7; 0.001 to 0.01 µM in experiment [1] (setting [2]); 1.8 µM in experiment [1] (setting [3]); 0.005 µM with Mouse splenocytes.
`CCCCOc1nc(N)c2nc(O)n(Cc3ccc(CCCN4CCC(CCN)CC4)cc3OC)c2n1` [Compound 175, 6-amino-9-(4-(3-(4-(2-aminoethyl)piperidin-1-yl)propyl)-2-methoxybenzyl)-2-butoxy-9H-purin-8-ol]: the EC50 at mTLR7 is under 0.0001 µM; at hTLR7, under 0.0001 µM; in experiment [1] (setting [2]), over 0.01 µM; in the experiment on Mouse splenocytes it was 0.006 µM. The “PBMC IL6 EC50 (nM)” value in experiment [1] (hIL6 in supernatant) was “inactive”.
Take `CCCCOc1nc(N)c2nc(O)n(Cc3ccc(CCCNC4CCNCC4)cc3OC)c2n1` [Compound 176, 6-amino-2-butoxy-9-(2-methoxy-4-(3-(piperidin-4-ylamino)propyl)benzyl)-9H-purin-8-ol]: the EC50 on mTLR7 is under 0.0001 µM; on hTLR7, under 0.0001 µM; in experiment [1] (setting [2]), over 0.01 µM; in the experiment on Mouse splenocytes, 0.0058 µM. Moreover, the “PBMC IL6 EC50 (nM)” value in experiment [1] (hIL6 in supernatant) is “inactive”.
Turning to `CCCCOc1nc(N)c2nc(O)n(Cc3ccc(CCN4CCNCC4)cc3OC)c2n1` [Compound 180, 6-amino-2-butoxy-9-(2-methoxy-4-(2-(piperazin-1-yl)ethyl)benzyl)-9H-purin-8-ol], the half-maximal effective concentration (EC50) is 0.0799 µM at mTLR7, 0.034 µM on hTLR7, over 0.01 µM in experiment [1] (setting [2]) and 0.873 µM in the experiment on Mouse splenocytes. Further, in experiment [1] (hIL6 in supernatant), the “PBMC IL6 EC50 (nM)” value is “inactive”.
In the case of `CCCC(CO)Oc1nc(N)c2nc(O)n(Cc3ccc(CN)cc3)c2n1` (centres unmarked) [Compound 182, 6-amino-9-(4-(aminomethyl)benzyl)-2-((1-hydroxypentan-2-yl)oxy)-9H-purin-8-ol], the EC50 at mTLR7 is 0.0059 µM; at hTLR7 it was 0.0021 µM; in experiment [1] (setting [2]), over 0.01 µM; in experiment [1] (setting [3]), 5.22 µM; in the experiment on Mouse splenocytes, 0.0024 µM.
On to `CCCCCNc1nc(N)c2nc(O)n(Cc3ccc(CN)cc3)c2n1` [Compound 183, 6-amino-9-(4-(aminomethyl)benzyl)-2-(pentylamino)-9H-purin-8-ol], for which the concentration for a half-maximal effect (EC50) is 0.0606 µM at mTLR7; 0.145 µM on hTLR7; over 0.01 µM in experiment [1] (setting [2]); 0.291 µM in experiment [1] (setting [3]); 0.235 µM with Mouse splenocytes.
For `CCCCCNc1nc(N)c2nc(O)n(Cc3ccc(CNCC(C)(C)O)cc3)c2n1` [Compound 184, 6-amino-9-(4-(((2-hydroxy-2-methylpropyl)amino)methyl)benzyl)-2-(pentyl-amino)-9H-purin-8-ol] the same measures were 0.0204 µM, 0.278 µM, 0.0001 to 0.001 µM, 0.0292 µM and 0.144 µM.
The like results for `CCCCCNc1nc(N)c2nc(O)n(Cc3ccc(CN(CC)CC)cc3)c2n1` [Compound 185, 6-amino-9-(4-((diethylamino)methyl)benzyl)-2-(pentylamino)-9H-purin-8-ol] were, in that order, 0.001 µM, 0.01 µM, 0.001 to 0.01 µM, 0.0126 µM and 0.0204 µM.
